Source: US20170135378A1, “COMPOSITION AND USE THEREOF” (DUPONT NUTRITION BIOSCIENCES APS, priority 2014, published 2017)

Tests used:
[1] = Release testing of betaine leaching from shrimp feed pellets in artificial seawater; format: physicochemical
Experimental: An aquafeed comprising the composition of the invention (or the composition itself) is placed in a rotating basket and immersed in 500 ml of artificial seawater (547.6 mM NaCl, 56.8 mM MgSO4.7H2O, 2.4 mM NaHCO3, adjusted to pH 8,2 with 1M NaOH), and held at 30° C. Aliquots of sample are withdrawn at selected time-points (1, 3, 5, 10, 15, 30, 45, 60 and 90 minutes). The volume of dissolution media is held constant through the re-addition of aliquots (30° C.) of fresh media to compensate. The aliquots are analysed by a suitable analytical technique (e.g. HPLC) in order to determine the concentration of the hydro-soluble component in the dissolution media.
An aquafeed sample (30 g) was placed in a rotating basket and immersed in 500 ml of artificial seawater (pH 8,2), held at 30° C. 5 ml aliquots of sample were withdrawn at selected time-points (1, 3, 5, 10, 15, 30, 45, 60 and 90 minutes). The volume of dissolution media was held constant (500 ml) through the re-addition of 5 ml aliquots of fresh media (30° C.). These samples were filtered on […], frozen and analysed by HPLC in Advanced Analysis.
Release curves (see FIGS. 1 to 3) show the amount of betaine leached as a percentage of weight of available net betaine (% w/w).

[2] = pure form; water and lower alcohols; cited from earlier work

## C[N+](C)(C)CC(=O)[O-] [Betafin BT, trimethylglycine]
[1]; pellets with increased betaine content (c. 5 and 10 kg/T, FIGS. 2 and 3), artificial seawater pH 8,2, 30° C., 90 minutes
  proportion of available betaine leached over 90 minutes: ≤ 40%
[1]; shrimp feed pellets c. 2, 5 and 10 kg betaine/T, artificial seawater, 30° C., up to 90 minutes
  leach profile of pellets (comparison in words): fastest and most extensive leaching
[1]; shrimp feed pellets prepared with c. 2 kg betaine/T, artificial seawater pH 8,2, 30° C., 90 minutes, FIG. 1
  available betaine dissolved after 90 minutes: ≤ 60%
[2]
  solubility (in words): readily soluble in water and lower alcohols
